Experimental data as given in ChEMBL document CHEMBL1152435, “Efficacious 11beta-hydroxysteroid dehydrogenase type I inhibitors in the diet-induced obesity mouse model” (J Med Chem, 2009).

What was measured:
Cynomolgus monkey [1] = test: Reduction of plasma insulin level in normal cynomolgus monkey at 1 mg/kg after 8 hrs; type: functional, Macaca fascicularis; parameters: scale not given: the % may be the effect or the level left
Cynomolgus monkey [2] = test: Reduction of plasma insulin level in normal cynomolgus monkey at 3 mg/kg after 8 hrs; type: functional, Macaca fascicularis; parameters: scale not given: the % may be the effect or the level left
[3] = Metabolic stability in mouse liver microsomes; type: ADME, Microsome; conditions: read-out: Stability
[4] = Metabolic stability in human liver microsomes; type: ADME, Microsome; conditions: read-out: Stability

half-life [3] [min]	half-life [4] [min]	SMILES	Activity (Cynomolgus monkey [1]) [%]	Activity (Cynomolgus monkey [2]) [%]
		N#Cc1ccc(-c2ccc(S(=O)(=O)Nc3cccc(N)n3)cc2)cc1	54	60
12	17	C[C@@H]1CN(c2ccc(F)cc2C(F)(F)F)CCN1S(=O)(=O)c1cccc(-n2cncn2)c1		
